What all share (type): cell-based, Staphylococcus aureus
One assay concerns MRSA strain ATCC 33591. The assay is described as follows: Broth microdilution checkerboard assay. The arrangement: unit not given here. As to conditions: for MICinitial: each agent alone (initial); for MICfinal: * = Resensitization. From the text: (§1) In some embodiments, the present lysin polypeptides reduce the minimum inhibitory concentration (MIC) of an antibiotic. Any known method to assess MIC may be used. In some embodiments, a checkerboard assay is used to determine the effect of a lysin on antibiotic concentration. The checkerboard assay is based on a modification of the CLSI method for MIC determination by broth microdilution (See Clinical and Laboratory Standards Institute (CLSI), CLSI. 2015. Methods for Dilution Antimicrobial Susceptibility Tests for Bacteria That Grow Aerobically; Approved Standard-10th Edition. Clinical and Laboratory Standards Institute, Wayne, Pa., which is herein incorporated by reference in its entirety and Ceri et al. 1999. J. Clin. Microbiol. 37: 1771-1776, which is also herein incorporated by reference in its entirety).
(§2) Checkerboards are constructed by first preparing columns of e.g., a 96-well polypropylene microtiter plate, wherein each well has the same amount of antibiotic diluted 2-fold along the horizontal axis. […] The lysin and antibiotic dilutions are then combined, so that each column has a constant amount of antibiotic and doubling dilutions of lysin, while each row has a constant amount of lysin and doubling dilutions of antibiotic. Each well thus has a unique combination of lysin and antibiotic. Bacteria are added to the drug combinations at a given concentration. […] Summation fractional inhibitory concentrations (ΣFICs) are calculated for each drug and the minimum ΣFIC value (ΣFICmin) is used to determine the effect of the lysin/antibiotic combination.
(§3) A step-wise approach was used to evaluate PlySs2 as a resensitizing agent. First, broth microdilution checkerboard assays were used to determine fractional inhibitory concentration index (FICI) values for combinations of PlySs2 with three β-lactam antibiotics [oxacillin (OXA), nafcillin (NAF), and cefazoline (CFZ)] against nine different MRSA strains. Data from the checkerboard assays were generated to determine the interaction and potency of PlySs2 with the β-lactam antibiotics in comparison to their individual activities. This comparison is represented as the FICI value, whereby values of ≤0.5 are consistent with synergy, values of >0.5-<1 are highly-additive, values of 1-≤2 are indifferent, and values >2 are antagonistic. Representative single agent MICs are also shown, determined for each agent alone (initial) and in combinations (final). Resensitization occurs in synergistic combinations in which the β-lactam antibiotic MIC values fall below established breakpoints, e.g. a MIC value of ≤2 for β-lactam-sensitive isolates, a MIC value of ≥4 for β-lactam-resistant isolates. See Clinical and Laboratory Standards Institute (CLSI), CLSI. 2019. M100 Performance Standards for Antimicrobial Susceptibility Testing; 29th Edition. Clinical and Laboratory Standards Institute, Wayne, Pa.
Background: Dilution methods test growth across graded concentrations, often in twofold steps.

The test system of another assay is MRSA strain HPV 107. The assay is described as follows: Broth microdilution checkerboard assay. On the set-up: unit not given here. As to conditions: for MICinitial: each agent alone (initial); for MICfinal: * = Resensitization.
Description: as §1, §2, §3

In a further assay the test system is MRSA strain MW2. Description: Broth microdilution checkerboard assay. On the set-up: unit not given here. The settings on record: for MICinitial: each agent alone (initial); for MICfinal: * = Resensitization.
Description: as §1, §2, §3

The subject of the next assay is MRSA strain JMI4789. The assay is described as follows: Broth microdilution checkerboard assay. The arrangement: unit not given here. The settings on record: for MICinitial: each agent alone (initial); for MICfinal: * = Resensitization.
Description: as §1, §2, §3

For another assay, the system named is MRSA strain JMI 227. Description: Broth microdilution checkerboard assay. The arrangement: unit not given here. The settings on record: for MICinitial: each agent alone (initial); for MICfinal: * = Resensitization.
Description: as §1, §2, §3

A further assay concerns MRSA strain CAIRD 426. The assay is described as follows: Broth microdilution checkerboard assay. On the set-up: unit not given here. As to conditions: for MICinitial: each agent alone (initial); for MICfinal: * = Resensitization.
Description: as §1, §2, §3

A further assay deals with MRSA strain ATCC 43300. Description: Broth microdilution checkerboard assay. The arrangement: unit not given here. The settings on record: for MICinitial: each agent alone (initial); for MICfinal: * = Resensitization.
Description: as §1, §2, §3

The test system of the next assay is MRSA strain JMI 1280. The assay is described as follows: Broth microdilution checkerboard assay. The arrangement: unit not given here. As to conditions: for MICinitial: each agent alone (initial); for MICfinal: * = Resensitization.
Description: as §1, §2, §3

In another assay the test system is MRSA strain NRS 11. The assay is described as follows: Broth microdilution checkerboard assay. The arrangement: unit not given here. The settings on record: for MICinitial: each agent alone (initial); for MICfinal: * = Resensitization.
Description: as §1, §2, §3

For assay [1], the system named is nine different MRSA strains. Description: Broth microdilution checkerboard assays, summary over the panel. The settings on record: each of the nine MRSA strains; breakpoint MIC ≤2 sensitive.
Description: as §1, §2
A step-wise approach was used to evaluate PlySs2 as a resensitizing agent. First, broth microdilution checkerboard assays were used to determine fractional inhibitory concentration index (FICI) values for combinations of PlySs2 with three β-lactam antibiotics [oxacillin (OXA), nafcillin (NAF), and cefazoline (CFZ)] against nine different MRSA strains. […] Representative single agent MICs are also shown, determined for each agent alone (initial) and in combinations (final). […]

The mark [2] stands for this setting: in combination PlySs2 + NAF (final).
The mark [3] stands for this setting: in combination PlySs2 + CFZ (final).

With `CCOc1ccc2ccccc2c1C(=O)N[C@@H]1C(=O)N2[C@@H]1SC(C)(C)[C@@H]2C(=O)O` [NAF, nafcillin], the MICinitial in the assay on MRSA strain ATCC 33591 is 64; in the assay with MRSA strain HPV 107, 2; in the assay with MRSA strain MW2, 4; with MRSA strain JMI4789, 4; in the assay on MRSA strain JMI 227 it was 4; in the assay on MRSA strain CAIRD 426, 16. The MICinitial in the assay on MRSA strain ATCC 43300 turned out to be 2; in the assay with MRSA strain JMI 1280, 256; in the assay with MRSA strain NRS 11 it was 64. Also, the MICfinal in the assay with MRSA strain ATCC 33591 (setting [2]) is recorded as 2*; in the assay with MRSA strain HPV 107 (setting [2]) it was 0.25; in the assay on MRSA strain MW2 (setting [2]), 0.031*; in the assay with MRSA strain JMI4789 (setting [2]), 0.5*; with MRSA strain JMI 227 (setting [2]), 0.5*; in the assay with MRSA strain CAIRD 426 (setting [2]) it was 1*. Further, the MICfinal in the assay with MRSA strain ATCC 43300 (setting [2]) is 0.25; with MRSA strain JMI 1280 (setting [2]), 2*; in the assay with MRSA strain NRS 11 (setting [2]) it was 1*. In addition, the “MIC in synergistic combination with PlySs2 relative to breakpoint” value in assay [1] was “below breakpoint values”.
On to `Cc1nnc(SCC2=C(C(=O)O)N3C(=O)[C@@H](NC(=O)Cn4cnnn4)[C@H]3SC2)s1` [CFZ, cefazoline], for which the MICinitial is given as 128 in the assay on MRSA strain ATCC 33591; 16 in the assay with MRSA strain HPV 107; 4 with MRSA strain MW2; 4 with MRSA strain JMI4789; 2 with MRSA strain JMI 227; 8 in the assay with MRSA strain CAIRD 426. Moreover, the results for the MICinitial in the assay with MRSA strain ATCC 43300, with MRSA strain JMI 1280 and with MRSA strain NRS 11 were 16, 32 and 256, respectively. In addition, the MICfinal in the assay on MRSA strain ATCC 33591 (setting [3]) was 0.5*; in the assay with MRSA strain HPV 107 (setting [3]), 2*; in the assay on MRSA strain MW2 (setting [3]), 1*; with MRSA strain JMI4789 (setting [3]), 1*; in the assay on MRSA strain JMI 227 (setting [3]) it was 0.5; with MRSA strain CAIRD 426 (setting [3]), 0.5*. The results for the MICfinal with MRSA strain ATCC 43300 (setting [3]), with MRSA strain JMI 1280 (setting [3]) and in the assay on MRSA strain NRS 11 (setting [3]) were 4, 0.5* and 1*, respectively. Further, in assay [1], the “MIC in synergistic combination with PlySs2 relative to breakpoint” value is on record as “below breakpoint values”.

Values taken from US20210260070A1, “LYSIN CF-301 RESENSITIZES METHICILLIN-RESISTANT STAPHYLOCOCCUS AUREUA (MRSA) TO PENICILLIN DERIVATIVES AND FIRST GENERATION CEPHALOSPORINS” (priority 2018, published 2021).
